Experimental data reported in ChEMBL document CHEMBL1149775, “Synthesis, characterization and biological activity of Schiff base analogues of indole-3-carboxaldehyde” (2008).
Converted amounts (≈) assume the structure as drawn.

How the values were obtained:
Type in all cases: functional
Pseudomonas fluorescens = experiment: Antibacterial activity against Pseudomonas fluorescens after 24 hrs by broth dilution technique
Bacillus subtilis = experiment: Antibacterial activity against Bacillus subtilis after 24 hrs by broth dilution technique
Aspergillus niger = experiment: Antifungal activity against Aspergillus niger after 48 hrs by serial plate dilution method
Candida albicans = experiment: Antifungal activity against Candida albicans after 48 hrs by serial plate dilution method
Staphylococcus aureus = experiment: Antibacterial activity against Staphylococcus aureus after 24 hrs by broth dilution technique
Trichophyton rubrum = experiment: Antifungal activity against Trichophyton rubrum after 48 hrs by serial plate dilution method

Row | MIC (Pseudomonas fluorescens) [µg/mL] | MIC (Bacillus subtilis) [µg/mL] | MIC (Aspergillus niger) [µg/mL] | MIC (Candida albicans) [µg/mL] | MIC (Staphylococcus aureus) [µg/mL] | MIC (Trichophyton rubrum) [µg/mL] | SMILES
1 | 19.3 (≈ 74.2 µM) | 11.3 (≈ 43.4 µM) | 17.8 (≈ 68.4 µM) | 11.9 (≈ 45.7 µM) | 18.5 (≈ 71.1 µM) | 16.2 (≈ 62.2 µM) | O=C(O)CC(/N=C/c1c[nH]c2ccccc12)C(=O)O (configuration not stated)
2 | 38.1 (≈ 156 µM) | 42.5 (≈ 174 µM) | > 50 | 26.8 (≈ 110 µM) | 16.8 (≈ 68.8 µM) | > 50 | CC(C)C(/N=C/c1c[nH]c2ccccc12)C(=O)O (configuration not stated)
3 | 5.7 (≈ 20.8 µM) | 48.2 (≈ 176 µM) | > 50 | 12.5 (≈ 45.6 µM) | 19.2 (≈ 70 µM) | > 50 | O=C(O)CCC(/N=C/c1c[nH]c2ccccc12)C(=O)O (configuration not stated)
4 | > 50 | 12.1 (≈ 46.8 µM) | > 50 | 19.9 (≈ 77 µM) | 35.3 (≈ 137 µM) | > 50 | CC(C)CC(/N=C/c1c[nH]c2ccccc12)C(=O)O (configuration not stated)

The remaining lines, values behind:

Row | SMILES | MIC (Pseudomonas fluorescens) [µg/mL] | MIC (Bacillus subtilis) [µg/mL] | MIC (Aspergillus niger) [µg/mL] | MIC (Candida albicans) [µg/mL] | MIC (Staphylococcus aureus) [µg/mL] | MIC (Trichophyton rubrum) [µg/mL]
5 | O=C(O)C(Cc1c[nH]cn1)/N=C/c1c[nH]c2ccccc12 (configuration not stated) | 3.8 (≈ 13.5 µM) | 35.1 (≈ 124 µM) | 47.5 (≈ 168 µM) | > 50 | 3.4 (≈ 12 µM) | > 50
6 | O=S(=O)(O)c1cc(O)c(/N=C/c2c[nH]c3ccccc23)c2ccccc12 | 21.6 (≈ 59 µM) | 15.5 (≈ 42.3 µM) | 21.3 (≈ 58.1 µM) | 15.2 (≈ 41.5 µM) | > 50 | 21.9 (≈ 59.8 µM)
7 | Oc1ccccc1/N=C/c1c[nH]c2ccccc12 | 15.8 (≈ 66.9 µM) | 18.4 (≈ 77.9 µM) | > 50 | 28.4 (≈ 120 µM) | 35.9 (≈ 152 µM) | > 50
